The values that follow come from PubChem BioAssay AID1996.

≈ marks a conversion by molar mass, not a printed value.

For this series the following is noted: buffer; pH 7.4; 200.0 µM.
With `Cc1onc(-c2c(Cl)cccc2Cl)c1C(=O)N1CCCCC1`, the solubility (kinetic) (as a rule, solubility judged after dilution from a stock solution rather than from solid) was over 50.9 µg/mL.
Consider `CCOc1ccc2oc(C(=O)N3CCCN(C)CC3)c(C)c2c1.Cl`, for which the kinetic solubility was over 52.9 µg/mL.
`CCCCn1c(=O)c(C(=O)NC(C)c2ccccc2)c(O)c2ccccc21` (centres undefined): the solubility (kinetic) was under 0.4 µg/mL.
Then `O=C(c1ccc2c(c1)OCCO2)N1CCN(c2ccccn2)CC1`, with over 48.8 µg/mL; and `O=C(NC1CC2CCC(C1)N2Cc1ccccc1)c1cccc(F)c1` (centres undefined), with over 50.8 µg/mL.
The compound `Cc1nc(N2CCOCC2)[nH]c(=O)c1[N+](=O)[O-]` displayed a solubility (kinetic) of 33.1 µg/mL (≈ 138 µM).
Take `O=C(NC1CCCCC1)Oc1cc2oc(=O)sc2cc1Cl`: the kinetic solubility came out at 10.1 µg/mL (≈ 30.8 µM).
The compound `Cc1cc(SCNC(=O)c2ccccc2)nc(C(C)C)n1` registered a kinetic solubility of over 45.2 µg/mL.
As for `COC(=O)C1=C(C)NC(=O)NC1c1c(O)ccc2ccccc12` (centres undefined), the figure is 15.2 µg/mL (≈ 48.7 µM).
Then `CCc1noc(C)c1C(=O)OCC(=O)NCc1ccc(Cl)cc1`, with 8.4 µg/mL (≈ 24.9 µM); and `CC(=O)c1sc2c(c1N)c(=O)[nH]c(=O)n2-c1ccccc1`, with 8.5 µg/mL (≈ 28.2 µM); and `O=C(NC1CCCC1)C(=O)c1c[nH]c2ccccc12`, with 12.1 µg/mL (≈ 47.2 µM).
`CCOC(=O)CC1C(=O)NCCN1C(=O)c1ccc(C)cc1` (centres undefined) had a solubility (kinetic) of over 45.7 µg/mL.
Then `CC1CCCCC1NC(=O)COc1cccnc1[N+](=O)[O-]` (centres undefined), with over 44 µg/mL; and `CCN(c1cccc(C)c1)S(=O)(=O)c1ccc(OC)c([N+](=O)[O-])c1`, with under 0.4 µg/mL; and `CC(C)Cn1c(N)c(C(=O)COC(=O)c2cc3ccccc3cc2O)c(=O)n(C)c1=O`, with 4.5 µg/mL (≈ 10.6 µM).
As for `COc1ccc(OC)c(N/C=C/C(=O)c2ccc(OC)c(OC)c2)c1`, the figure is under 0.7 µg/mL; as for `CCN(CC)S(=O)(=O)c1cccc(-c2cn3cccnc3n2)c1`, 11.1 µg/mL (≈ 33.6 µM).
Regarding `O=C(COC(=O)CN1C(=O)NC2(CCCC2)C1=O)NCc1ccc(Cl)cc1Cl`, the solubility (kinetic) was over 64.2 µg/mL.
On to `Nc1cc(N)nc(SCC(=O)NCC(=O)Nc2ccc(F)c(F)c2F)n1`, for which the solubility (kinetic) turned out to be 51.3 µg/mL (≈ 133 µM).
For the compound `COc1cccc(NC(=O)COC(=O)C2CC2)c1`, the solubility (kinetic) is over 37.4 µg/mL.
Then `CCCCCCN1C2=NCCCN2c2ccccc21.Cl`, with over 44.1 µg/mL.
Then `CCN(CC)Cc1cc(O)c(CN(CC)CC)cc1O`, with over 42.1 µg/mL.
In turn, `O=C(CSC1=Nc2ccccc2C2CC=NN12)NCc1ccco1` (centres undefined) registered a kinetic solubility of over 51.1 µg/mL.
As for `COc1cc(OC)cc(C(=O)NCC(=O)OCC(=O)NCc2ccco2)c1`, the figure is over 56.5 µg/mL.
As for `CC1(/[N+]([O-])=C/c2ccc(Cl)cc2Cl)CCCCC1=O` (centres undefined), the figure is 42.9 µg/mL (≈ 143 µM).
`COC(=O)C1(C(C[N+](=O)[O-])c2ccc(C)cc2)C(=O)NCC1c1ccco1` (centres undefined) yielded a kinetic solubility of over 55.9 µg/mL.
Then `S=C(NC1CC1)NC1CCCc2ccccc21` (centres undefined), with over 37 µg/mL; and `O=C(/C=C\N1CCOCC1)c1ccc(Br)cc1`, with over 44.4 µg/mL.
Then `Cc1cccc(NC(=O)CCCn2c(=S)[nH]c3ccccc3c2=O)c1`, with 0.3 µg/mL (≈ 0.849 µM).
As for `CCC(C)CN1CCC(CO)(Cc2ccccc2Cl)CC1` (centres undefined), the figure is over 46.5 µg/mL; as for `Cc1ccc2c(c1)c1c3n2CCN(CC#N)C3CCC1` (centres undefined), 1.1 µg/mL (≈ 4.15 µM).
As for `CCOc1ncccc1C(=O)N=c1sccn1C`, the kinetic solubility was over 39.5 µg/mL.
As for `Cc1nc2ccc([N+](=O)[O-])cc2c(=O)n1Cc1ccc(F)cc1`, the solubility (kinetic) worked out at 4.7 µg/mL (≈ 15 µM).
The compound `CCCCOc1ccc(S(=O)(=O)N2CCCCC2)cc1` registered a solubility (kinetic) of 1.1 µg/mL (≈ 3.7 µM).
`O=C(O)c1ccccc1NCCO` registered a kinetic solubility of 24 µg/mL (≈ 132 µM).
Regarding `Cc1ccc(C(=O)OCC(=O)c2ccc[nH]2)s1`, the kinetic solubility is over 37.4 µg/mL.
`CC(NC(=S)NC(=O)c1cccs1)c1ccccc1` (centres undefined) displayed a solubility (kinetic) of 8.2 µg/mL (≈ 28.2 µM).
In turn, `CCCCOc1ccc(N=Cc2ccc[nH]2)cc1` came in with a kinetic solubility of 34.9 µg/mL (≈ 144 µM).
Then `CC(C)OC(=O)C(C)Nc1ccc(F)c(Cl)c1` (centres undefined), with 5.8 µg/mL (≈ 22.3 µM); and `O=C(COC(=O)c1cnccn1)Nc1ncc(C(F)(F)F)cc1Cl`, with 53.4 µg/mL (≈ 148 µM).
As for `CC(Cc1ccccc1)NC(=O)c1cc([N+](=O)[O-])ccc1Cl` (centres undefined), the figure is 10 µg/mL (≈ 31.4 µM); as for `Cc1ccccc1NC(=O)COC(=O)c1cccnc1`, over 40.5 µg/mL.
As for `Cc1ccc(CNC(=O)COC(=O)C2CCC2)cc1`, the figure is over 39.2 µg/mL.
In turn, `NS(=O)(=O)c1ccc(CNC(=O)c2ccc3ccccc3n2)cc1` displayed a kinetic solubility of 3.9 µg/mL (≈ 11.4 µM).
With `CCC1CCCCN1C(=O)CSc1nc(N)cc(N)n1` (centres undefined), the kinetic solubility worked out at 43.1 µg/mL (≈ 146 µM).
`Cc1cccc(C)c1NC(=O)N1C2CCC1CC(O)(c1cccnc1)C2` (centres undefined): the kinetic solubility is over 52.7 µg/mL.
The compound `O=C(O)/C=C/C(=O)NCCc1ccccc1` came in with a solubility (kinetic) of over 32.9 µg/mL.
Then `COc1ccccc1NC(=O)c1c(O)c2ccccc2[nH]c1=O`, with 1.2 µg/mL (≈ 3.87 µM); and `CC(C)(C)NS(=O)(=O)c1ccc2[nH]c3c(c2c1)CCCCC3`, with 8.8 µg/mL (≈ 27.5 µM); and `CCOc1ccc(NC(=O)CN(C)C(=O)c2ccc(C)o2)cc1OCC`, with 52.5 µg/mL (≈ 146 µM).
Take `O=C(O)C1CCC(CNS(=O)(=O)c2ccccc2)CC1` (centres undefined): the solubility (kinetic) is over 44.6 µg/mL.
In turn, `CCSc1nc(O)cc(=O)n1CC` gave a kinetic solubility of over 30 µg/mL.
Then `Cn1c(=O)c(C(=O)NCCCc2ccccc2)c(O)c2ccccc21`, with under 0.4 µg/mL; and `CN(C(=O)CCN1C(=O)c2ccccc2C1=O)c1ccccc1`, with 36.5 µg/mL (≈ 118 µM); and `O=C(Nc1nc2ccccc2[nH]1)c1ccccc1O`, with 0.2 µg/mL (≈ 0.79 µM).
In turn, `Cc1cnc(C(=O)OCc2nc3ccsc3c(=O)[nH]2)cn1` came in with a solubility (kinetic) of 45.3 µg/mL (≈ 150 µM). This solubility kinetic is about 230-fold higher than that of the compound before.
Then `CCOc1ccc(C(=S)N2CCCC2)cc1OCC`, with 41.8 µg/mL (≈ 150 µM); and `Cc1ccc(NC(=O)c2cncc(Br)c2)nc1`, with 28.1 µg/mL (≈ 96.2 µM); and `CC12CCC(C(=O)NCc3ccccc3Cl)(OC1=O)C2(C)C` (centres undefined), with over 48.3 µg/mL.
`CC(=O)Nc1c(F)cc(Br)cc1F` registered a kinetic solubility of over 37.5 µg/mL.
`C=CCN(c1ccccc1OC)S(=O)(=O)c1cccc(C(=O)OCC(=O)N2CCOCC2)c1`: the kinetic solubility was over 71.2 µg/mL.
Then `CS(=O)(=O)N1c2cccc3cccc(c23)S1(=O)=O`, with 7.7 µg/mL (≈ 27.2 µM).
As for `CCOC(=O)C1CCN(c2ncnc3c(C)csc23)CC1`, the kinetic solubility came out at 37.8 µg/mL (≈ 124 µM). This solubility kinetic lies about 4.9-fold higher than the previous one.
`Cc1nc(Cl)c(C(=O)NCc2ccccc2)c(C)c1[N+](=O)[O-]` yielded a kinetic solubility of 10.8 µg/mL (≈ 33.8 µM).
As for `O=C(Nc1cccc2ncccc12)c1cccc(Br)c1`, the figure is 16.2 µg/mL (≈ 49.5 µM); as for `CC1=C(C)CC(C(=O)Nc2nccs2)C(C(=O)O)C1` (centres undefined), 40.6 µg/mL (≈ 145 µM).
`COc1ccc(S(=O)(=O)N2CCSCC2)cc1C(N)=O`: the kinetic solubility turned out to be 25 µg/mL (≈ 79 µM).
As for `COc1ccc2c(C)cc(SCC(=O)NC3CCCCC3)nc2c1`, the figure is 1.3 µg/mL (≈ 3.77 µM).
Then `Nc1cc(S(=O)(=O)N2CCCCC2)ccc1N1CCOCC1`, with 38.7 µg/mL (≈ 119 µM); and `COc1ccccc1CC(=O)Nc1cccc(C)n1`, with over 38.4 µg/mL; and `CC(=O)Nc1c(-c2ccccc2)nc2cc(C)ccn12`, with 29.4 µg/mL (≈ 111 µM).
As for `Nn1c(SCC(=O)NCC2CCCO2)nnc1-c1ccco1` (centres undefined), the figure is over 48.5 µg/mL; as for `CC(C)(C)NC(=O)CN(Cc1ccccc1)S(=O)(=O)c1ccccc1`, 38.7 µg/mL (≈ 107 µM).
Turning to `COc1ccc(C)cc1S(=O)(=O)NCCN1CCOCC1`, the kinetic solubility was over 47.2 µg/mL.
Then `COc1cccc(NC(=O)c2cccnn2)c1`, with over 34.4 µg/mL; and `COc1ccc(C(=O)NCCNc2ccccc2[N+](=O)[O-])cc1`, with 36.3 µg/mL (≈ 115 µM).
Then `Cc1ccccc1NC(=O)c1ccc2nccnc2c1`, with 37.3 µg/mL (≈ 142 µM); and `Cc1c(C(=O)Nc2cccc(S(=O)(=O)N3CCOCC3)c2)oc2ccc(Br)cc12`, with 4.5 µg/mL (≈ 9.39 µM); and `COC(C(=O)Nc1ccc(Br)cc1F)c1ccccc1` (centres undefined), with 26.1 µg/mL (≈ 77.2 µM).
As for `O=C1CN(C(=O)c2ccc(Cl)nc2)c2ccccc2N1`, the figure is 33.3 µg/mL (≈ 116 µM).
For the compound `C=CCn1c(C)cc(-c2csc(NC)n2)c1C`, the kinetic solubility worked out at 8.5 µg/mL (≈ 34.4 µM).
As for `Cc1cc(Nc2cccc(Cl)c2)nc(-c2ccccc2O)n1`, the kinetic solubility is 0.6 µg/mL (≈ 1.92 µM).
Turning to `COc1ccccc1NC(=S)N1CCn2cccc2C1c1cccnc1` (centres undefined), the solubility (kinetic) is 42.2 µg/mL (≈ 116 µM).
`NC(=O)c1ccc(NC(=O)COC(=O)C2CCN(S(=O)(=O)c3cccs3)CC2)cc1` showed a solubility (kinetic) of 25.1 µg/mL (≈ 55.6 µM).
`Cc1c(CCO)c(=O)n2c([nH]c3ccccc32)c1C#N`: the solubility (kinetic) is 19 µg/mL (≈ 71.1 µM). The solubility kinetic values of the last two compounds are within 1.5-fold of each other.
Then `Cc1ccc(NC(=O)CN2C(=O)CNC2=O)cc1`, with over 37.1 µg/mL.
Then `Cc1ccc(-n2c(N)c(Br)c(=O)[nH]c2=O)cc1C`, with over 46.5 µg/mL; and `O=C(NCCNC(=O)c1ccccc1F)c1ccccn1`, with over 43.1 µg/mL.
As for `CCc1nnc(NC(=O)CSc2nnc3nc(C)cc(C)n23)s1`, the figure is over 52.4 µg/mL; as for `C=C(C)C(=O)OCC(=O)NCc1ccccc1`, 27.2 µg/mL (≈ 117 µM).
The compound `Cc1cc(Cl)ccc1OC(C)C(=O)OCC(=O)c1ccc[nH]1` (centres undefined) returned a solubility (kinetic) of 4 µg/mL (≈ 12.4 µM).
Then `Cc1ccc(C)n1-c1cc([N+](=O)[O-])ccc1-n1ccnc1`, with 35.9 µg/mL (≈ 127 µM); and `CCOCCCn1cnc2c3cc(F)ccc3n(C)c2c1=O`, with 10.4 µg/mL (≈ 34.3 µM).
`O=C(COC(=O)c1ccc(Cl)nc1)Nc1ccc(N2CCCCC2)cc1` showed a kinetic solubility of 10.9 µg/mL (≈ 29.2 µM).
Compound `O=C(OCC(=O)N1CCC(Cc2ccccc2)CC1)c1cc(Br)ccc1O` had a kinetic solubility of 6 µg/mL (≈ 13.9 µM).
Then `CC(C)C(Nc1ccc(C(F)(F)F)cc1[N+](=O)[O-])C(=O)O` (centres undefined), with over 45.9 µg/mL; and `Cc1ccc(C2CC3CCC(C2)N3Cc2ccccc2F)cc1` (centres undefined), with 26.8 µg/mL (≈ 86.6 µM); and `COc1ccc(CCNC(=O)C2CC(O)CN2S(=O)(=O)c2ccc(Cl)cc2)cc1OC` (centres undefined), with over 70.3 µg/mL.
Then `c1ccc(-n2cnc3ccccc32)nc1`, with 26.3 µg/mL (≈ 135 µM).
As to `CC1CCCCN1Cc1ccc(Cl)nc1` (centres undefined), the kinetic solubility worked out at 15.5 µg/mL (≈ 69 µM). Against the preceding compound, the solubility kinetic is about 1.7-fold lower.
As for `Cc1csc2c(=O)sc(NC(=O)c3cccs3)nc12`, the figure is 0.6 µg/mL (≈ 1.95 µM); as for `CCC(=O)Nc1ccc2c(c1)nc(CCNC(=O)c1ccco1)n2C`, over 51.1 µg/mL.
Then `O=C(Nc1ccc(Cl)cc1)C1CCN(C(=O)c2cccs2)CC1`, with 12.9 µg/mL (≈ 37 µM).
